Reference: patent US9828369B2, “Isoquinoline derivatives useful as inhibitors of diacylglyceride O-acyltransferase 2” (Merck Sharp & Dohme Corp., priority 2014, dated 2017)

molecular target: hDGAT2 (Homo sapiens (Human), UniProt Q96PD7); assay: DGAT2 enzymatic activity assay (triolein formation, LC/MS/MS); conditions: read-out: IC50 values for inhibition of DGAT2; membrane prep of Sf-9 cells expressing hDGAT2; 25 μM diolein, 10 μM oleoyl-CoA; room temperature; triolein by LC/MS/MS
Sequence (Q96PD7 whole entry): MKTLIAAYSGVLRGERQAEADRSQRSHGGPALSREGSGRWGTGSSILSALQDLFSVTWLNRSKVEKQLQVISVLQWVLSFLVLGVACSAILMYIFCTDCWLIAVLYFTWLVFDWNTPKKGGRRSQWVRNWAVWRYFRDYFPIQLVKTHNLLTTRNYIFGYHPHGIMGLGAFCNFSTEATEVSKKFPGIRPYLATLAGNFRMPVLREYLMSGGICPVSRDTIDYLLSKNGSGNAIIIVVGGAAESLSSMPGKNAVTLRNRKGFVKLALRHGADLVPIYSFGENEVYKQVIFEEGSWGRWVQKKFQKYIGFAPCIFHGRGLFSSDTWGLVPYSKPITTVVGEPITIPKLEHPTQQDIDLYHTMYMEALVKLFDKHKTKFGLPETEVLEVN

Compound | IC50
COc1cccc(-c2ccc(CNC(=O)c3csc(-c4ccc(C(F)(F)F)cc4)n3)c3cnccc23)c1 [Example 78, N-((5-(3-methoxyphenyl)isoquinolin-8-yl)methyl)-2-(4-(trifluoromethyl)phenyl)thiazole-4-carboxamide] | 1250 nM
COc1cccc(-c2ccc(CNC(=O)c3cnn(-c4ccccc4)c3)c3cnccc23)c1 [Example 79, N-((5-(3-methoxyphenyl)isoquinolin-8-yl)methyl)-1-phenyl-1H-pyrazole-4-carboxamide] | 8490 nM
COc1cccc(-c2ccc(CNC(=O)c3cc(-c4ccccc4)no3)c3cnccc23)c1 [Example 80, N-((5-(3-methoxyphenyl)isoquinolin-8-yl)methyl)-3-phenylisoxazole-5-carboxamide] | 2410 nM
COc1cccc(-c2ccc(CNC(=O)Cc3nnc(-c4ccccc4)[nH]3)c3cnccc23)c1 [Example 81, N-((5-(3-methoxyphenyl)isoquinolin-8-yl)methyl)-2-(5-phenyl-4H-1,2,4-triazol-3-yl)acetamide] | 483 nM
COc1cccc(-c2ccc(CNC(=O)c3ccc(-c4ccccc4O)cc3)c3cnccc23)c1 [Example 82, 2′-hydroxy-N-((5-(3-methoxyphenyl)isoquinolin-8-yl)methyl)-[1,1′-biphenyl]-4-carboxamide] | 602 nM
COc1cccc(-c2ccc(CNC(=O)c3ccc(-c4ccccc4)o3)c3cnccc23)c1 [Example 83, N-((5-(3-methoxyphenyl)isoquinolin-8-yl)methyl)-5-phenylfuran-2-carboxamide] | 1450 nM
COc1cccc(-c2ccc(CNC(=O)c3ccc(N4CCCCC4)cc3)c3cnccc23)c1 [Example 84, N-((5-(3-methoxyphenyl)isoquinolin-8-yl)methyl)-4-(piperidin-1-yl)benzamide] | 988 nM
COc1cccc(-c2ccc(CNC(=O)c3cc(-c4ccccc4)nn3-c3ccccc3)c3cnccc23)c1 [Example 85, N-((5-(3-methoxyphenyl)isoquinolin-8-yl)methyl)-1,3-diphenyl-1H-pyrazole-5-carboxamide] | 3580 nM
COc1cccc(-c2ccc(CNC(=O)c3ccc(-c4ccc(F)cc4)cc3)c3cnccc23)c1 [Example 86, 4′-fluoro-N-((5-(3-methoxyphenyl)isoquinolin-8-yl)methyl)-[1,1′-biphenyl]-4-carboxamide] | 1400 nM
COc1cccc(-c2ccc(CNC(=O)c3cccc(-c4cccc(F)c4)c3)c3cnccc23)c1 [Example 87, 3′-fluoro-N-((5-(3-methoxyphenyl)isoquinolin-8-yl)methyl)-[1,1′-biphenyl]-3-carboxamide] | 1200 nM
COc1cccc(-c2ccc(CNC(=O)c3ccc(-c4cccc(F)c4)cc3)c3cnccc23)c1 [Example 88, 3′-fluoro-N-((5-(3-methoxyphenyl)isoquinolin-8-yl)methyl)-[1,1′-biphenyl]-4-carboxamide] | 1560 nM
COc1cccc(-c2ccc(CNC(=O)Cc3nc(-c4ccccc4)cs3)c3cnccc23)c1 [Example 89, N-((5-(3-methoxyphenyl)isoquinolin-8-yl)methyl)-2-(4-phenylthiazol-2-yl)acetamide] | 2230 nM
COc1cccc(-c2ccc(CNC(=O)c3ccccc3-n3cnnn3)c3cnccc23)c1 [Example 90, N-((5-(3-methoxyphenyl)isoquinolin-8-yl)methyl)-2-(1H-tetrazol-1-yl)benzamide] | 902 nM
COc1cccc(-c2ccc(CNC(=O)c3cccc(-n4cnnn4)c3)c3cnccc23)c1 [Example 91, N-((5-(3-methoxyphenyl)isoquinolin-8-yl)methyl)-3-(1H-tetrazol-1-yl)benzamide] | 889 nM
COc1cccc(-c2ccc(CNC(=O)c3cccc4cnccc34)c3cnccc23)c1 [Example 92, N-((5-(3-methoxyphenyl)isoquinolin-8-yl)methyl)isoquinoline-5-carboxamide] | 1760 nM
COc1cccc(-c2ccc(CNC(=O)CN3CCN(c4ccccc4)CC3)c3cnccc23)c1 [Example 93, N-((5-(3-methoxyphenyl)isoquinolin-8-yl)methyl)-2-(4-phenylpiperazin-1-yl)acetamide] | 6670 nM
COc1cccc(-c2ccc(CNC(=O)CCc3cnn(C)c3)c3cnccc23)c1 [Example 94, N-((5-(3-methoxyphenyl)isoquinolin-8-yl)methyl)-3-(1-methyl-1H-pyrazol-4-yl)propanamide] | 305 nM
COc1cccc(-c2ccc(CNC(=O)CC3(c4ccccc4)CCN(C(=O)OC(C)(C)C)C3)c3cnccc23)c1 (centres unmarked) [Example 95, tert-butyl 3-(2-(((5-(3-methoxyphenyl)isoquinolin-8-yl)methyl)amino)-2-oxoethyl)-3-phenylpyrrolidine-1-carboxylate] | 1310 nM
COc1cccc(-c2ccc(CNC(=O)C3CCC(c4ccccc4)=N3)c3cnccc23)c1 (centres unmarked) [Example 96, N-((5-(3-methoxyphenyl)isoquinolin-8-yl)methyl)-5-phenyl-3,4-dihydro-2H-pyrrole-2-carboxamide] | 8000 nM

Compound | IC50
COc1cccc(-c2ccc(CNC(=O)C3CC3c3ccc(Cl)cc3)c3cnccc23)c1 (centres unmarked) [Example 97, 2-(4-chlorophenyl)-N-((5-(3 methoxyphenyl)isoquinolin-8-yl)methyl)cyclopropanecarboxamide] | 597 nM
COc1cccc(-c2ccc(CNC(=O)C3CC34CCCC4)c3cnccc23)c1 (centres unmarked) [Example 98, N-((5-(3-methoxyphenyl)isoquinolin-8-yl)methyl)spiro[2.4]heptane-1-carboxamide] | 7400 nM
COc1cccc(-c2ccc(CNC(=O)C3CC34CCCCC4)c3cnccc23)c1 (centres unmarked) [Example 100, N-((5-(3-methoxyphenyl)isoquinolin-8-yl)methyl)spiro[2.5]octane-1-carboxamide] | 243 nM
COc1cccc(-c2ccc(CNC(=O)C3CC3c3ccccc3Br)c3cnccc23)c1 (centres unmarked) [Example 101, 2-(2-bromophenyl)-N-((5-(3-methoxyphenyl)isoquinolin-8-yl)methyl)cyclopropanecarboxamide] | 915 nM
COc1cccc(-c2ccc(CNC(=O)C3CC3c3ccc(F)cc3)c3cnccc23)c1 (centres unmarked) [Example 102, 2-(4-fluorophenyl)-N-((5-(3-methoxyphenyl)isoquinolin-8-yl)methyl)cyclopropanecarboxamide] | 178 nM
COc1cccc(-c2ccc(CNC(=O)C3(S(=O)(=O)c4ccc(Cl)cc4)CC3)c3cnccc23)c1 [Example 103, 1-((4-chlorophenyl)sulfonyl)-N-((5-(3-methoxyphenyl)isoquinolin-8-yl)methyl)cyclopropanecarboxamide] | 1180 nM
COc1cccc(-c2ccc(CNC(=O)C3CC3c3cccnc3)c3cnccc23)c1 (centres unmarked) [Example 104, N-((5-(3-methoxyphenyl)isoquinolin-8-yl)methyl)-2-(pyridin-3-yl)cyclopropanecarboxamide] | 483 nM
COc1cccc(-c2ccc(CNC(=O)C3CC3c3ccccn3)c3cnccc23)c1 (centres unmarked) [Example 105, N-((5-(3-methoxyphenyl)isoquinolin-8-yl)methyl)-2-(pyridin-2-yl)cyclopropanecarboxamide] | 7440 nM
COc1ccc(C2CC2C(=O)NCc2ccc(-c3cccc(OC)c3)c3ccncc23)cc1 (centres unmarked) [Example 106, 2-(4-methoxyphenyl)-N-((5-(3-methoxyphenyl)isoquinolin-8-yl)methyl)cyclopropanecarboxamide] | 537 nM
COc1cccc(-c2ccc(CNC(=O)C3CC3c3cccc(OC)c3)c3cnccc23)c1 (centres unmarked) [Example 107, 2-(3-methoxyphenyl)-N-((5-(3-methoxyphenyl)isoquinolin-8-yl)methyl)cyclopropanecarboxamide] | 1180 nM
COc1cccc(-c2ccc(CNC(=O)C3CC3(F)c3ccccc3)c3cnccc23)c1 (centres unmarked) [Example 109, 2-fluoro-N-((5-(3-methoxyphenyl)isoquinolin-8-yl)methyl)-2-phenylcyclopropanecarboxamide] | 696 nM
COc1cccc(-c2ccc(CNC(=O)c3n[nH]c(=O)c4ccccc34)c3cnccc23)c1 [Example 110, N-((5-(3-methoxyphenyl)isoquinolin-8-yl)methyl)-4-oxo-3,4-dihydrophthalazine-1-carboxamide] | 544 nM
COc1cccc(-c2ccc(CNC(=O)C(C)(C)Oc3ccc(C(F)(F)F)cc3)c3cnccc23)c1 [Example 111, N-((5-(3-methoxyphenyl)isoquinolin-8-yl)methyl)-2-methyl-2-(4-(trifluoromethyl)phenoxy)propanamide] | 1230 nM
COc1cccc(-c2ccc(CNC(=O)C(C)(C)Oc3ccc(C(F)(F)F)cn3)c3cnccc23)c1 [Example 112, N-((5-(3-methoxyphenyl)isoquinolin-8-yl)methyl)-2-methyl-2-((5-(trifluoromethyl)pyridin-2-yl)oxy)propanamide] | 1160 nM
COc1cccc(-c2ccc(CNC(=O)c3cn(Cc4ccccc4)nn3)c3cnccc23)c1 [Example 113, 1-benzyl-N-((5-(3-methoxyphenyl)isoquinolin-8-yl)methyl)-1H-1,2,3-triazole-4-carboxamide] | 5890 nM
COc1cccc(-c2ccc(CNC(=O)C(C)(C)Oc3cc(C(F)(F)F)ccn3)c3cnccc23)c1 [Example 114, N-((5-(3-methoxyphenyl)isoquinolin-8-yl)methyl)-2-methyl-2-((4-(trifluoromethyl)pyridin-2-yl)oxy)propanamide] | 6110 nM
COc1cccc(-c2ccc(CNC(=O)c3cnn(Cc4ccccc4)c3)c3cnccc23)c1 [Example 115, 1-benzyl-N-((5-(3-methoxyphenyl)isoquinolin-8-yl)methyl)-1H-pyrazole-4-carboxamide] | 3390 nM
COc1cccc(-c2ccc(CNC(=O)C(F)(F)c3ccc(Br)cn3)c3cnccc23)c1 [Example 116, 2-(5-bromopyridin-2-yl)-2,2-difluoro-N-((5-(3-methoxyphenyl)isoquinolin-8-yl)methyl)acetamide] | 8130 nM
COc1cccc(-c2ccc(CNC(=O)c3cc(C)n(Cc4ccccc4)n3)c3cnccc23)c1 [Example 117, 1-benzyl-N-((5-(3-methoxyphenyl)isoquinolin-8-yl)methyl)-5-methyl-1H-pyrazole-3-carboxamide] | 942 nM
